The source of these data is PubChem BioAssay (NCI).

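In this assay, cells in 96-well plates receive the compound at five concentrations for 48 hours. Endpoints are linearly interpolated between the surrounding concentrations. GI50 = concentration required for 50% inhibition of growth. TGI marks complete inhibition of growth.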 A value given as a limit tells only on which side of the number the result lay.

Experiment in all cases: NCI-60 cell line screen, 48 h
Assay [1] deals with A549 NSCLC.
Assay [2] has as its system COLO 205 colon.
Assay [3] concerns SN12C renal.
The test system of assay [4] is SK-MEL-28 melanoma.
In assay [5] the test system is IGROV1 ovarian.
Assay [6] has as its system HCT-116 colon.
Assay [7] deals with HL-60(TB) leukemia.
Assay [8] has as its system LOX IMVI melanoma.
Assay [9] concerns UO-31 renal.
Assay [10] concerns A498 renal.

For `CC(=O)O/N=C(/C)c1ccccc1O`, the TGI in assay [1], in [2], in assay [3], in [4], in [5] and in assay [6] was over 100 µM each time. Further, the TGI in assay [7], in [8] and in [9] was over 100 µM in each case.
With `C=C(C)CCOC(c1ccccc1)(c1ccccc1)c1ccccc1`, the TGI is over 100 µM in [1]; over 100 µM in assay [2]; over 100 µM in assay [3]; over 100 µM in assay [4]; over 100 µM in assay [5]; 76.6 µM in assay [6]. For the same compound, the figures for the TGI in assay [7], in [8] and in [9] were over 100 µM, 79.2 µM and over 100 µM, respectively.
For the compound `O=[N+]([O-])c1ccc(Cl)cc1N/N=C/c1ccnc2ccccc12`, the TGI in assay [1], in [2], in [3], in assay [4], in [5] and in assay [6] was over 100 µM throughout. The TGI in assay [7] and in assay [9] was over 100 µM in each case.
For `CCCCN(CCCC)C(=O)C(=O)C(C(=O)c1ccc(OC)cc1)c1ccc(OC)cc1` (stereo not drawn), the TGI in assay [1], in assay [2], in [3], in assay [4], in assay [5] and in assay [6] was over 100 µM throughout. Further, the TGI in [7], in assay [8] and in [9] was over 100 µM each time.
In the case of `CCCCCCCCCCCCC(O)c1ccc(C#CCCCCCCCCCO)o1` (stereo not drawn), the GI50 in [1] is 16.9 µM; in assay [2], over 100 µM; in assay [3], 18.7 µM; in assay [4], 37.2 µM; in [5] it was 25.9 µM; in [6], 14.4 µM. Besides, the GI50 was 18.5 µM in assay [8] and 19.9 µM in assay [9]. The TGI in assay [1] was 32.9 µM; in [2] it was over 100 µM; in [3], 33.2 µM; in [4], over 100 µM; in assay [5], 51.8 µM; in [6], 27.4 µM. Moreover, the TGI in [8] is 33.5 µM; in assay [9] it was 38.5 µM.
In the case of `CN(C)CCn1c2c3ccccc3ccc2c2oc(=O)c3ccccc3c21`, the TGI was 15.3 µM in assay [1]; over 100 µM in assay [2]; 18.4 µM in assay [4]; 55.5 µM in assay [5]; 29.1 µM in assay [6]; over 100 µM in assay [7]. In addition, the values for the TGI in assay [8] and in assay [9] were 27.7 µM and 8.94 µM, respectively.
Turning to `N#CC(C#N)=C/C=C(\Sc1nc2ccccc2s1)c1ccc(Cl)cc1`, the GI50 is 9.32 µM in [1]; 3.26 µM in assay [2]; 7.88 µM in assay [3]; 5.34 µM in assay [4]; 4.87 µM in assay [5]; 2.14 µM in assay [6]. In addition, the GI50 is 2.59 µM in assay [8], 8.26 µM in assay [10] and 7.85 µM in assay [9]. Also, the TGI is 30.5 µM in assay [1]; over 27.7 µM in [2]; over 53.1 µM in assay [3]; 21.7 µM in assay [4]; 12.5 µM in [5]; 5.78 µM in assay [6]. The TGI in [8] is over 26.5 µM; in [10], 28.6 µM; in [9], 29.3 µM.
In the case of `Oc1[nH]c2ccccc2c1N=Nc1nc(-c2ccc(Br)cc2)cs1`, the TGI in [1] was 70.8 µM; in assay [2], 79.1 µM; in assay [3], 83.2 µM; in [4], 53.9 µM; in [5], 23.1 µM; in [6], over 100 µM. Also, the values for the TGI in assay [8] and in [9] were 33.1 µM and 56.2 µM, respectively.
Consider `c1ccc(NCn2cnc3ccccc32)cc1`, for which the TGI in assay [1], in assay [2], in assay [3], in assay [4], in assay [5] and in assay [6] was over 100 µM in each case. Also, the TGI in [8], in assay [10] and in [9] was over 100 µM in each case.
With `Nc1n[nH]c2cccc(C#Cc3cccc(C(=O)Nc4ccc(CN5CCOCC5)c(C(F)(F)F)c4)c3)c12`, the GI50 was 3.13 µM in [1]; 1.35 µM in assay [2]; 2.48 µM in assay [3]; 1.88 µM in assay [4]; 2.35 µM in assay [5]; 1.53 µM in assay [6]. The GI50 in assay [7] is 1.17 µM; in [8], 1.67 µM; in assay [9], 1.9 µM. In addition, the TGI in assay [1] was 11.3 µM; in [2] it was 6.99 µM; in assay [3], 9.48 µM; in assay [4], 7.08 µM; in assay [5], 7.01 µM; in assay [6], 5.2 µM. For the same compound, the values for the TGI in [7], in assay [8] and in assay [9] were 5 µM, 4.02 µM and 5.82 µM, respectively.
For `Cc1cc2c(C)[nH]nc2c(C(=O)O)c1C`, the TGI in [1], in assay [2], in assay [3], in assay [4], in assay [5] and in assay [6] was over 100 µM each time. For the same compound, the TGI in [7], in [10] and in [9] was over 100 µM each time.
For the compound `O=C1C=CC(=O)c2nc3c(cc21)CCC3`, the TGI in assay [1] is over 100 µM; in assay [2] it was 27.7 µM; in [3], 40.3 µM; in assay [4] it was 40.4 µM; in assay [5], 34 µM; in assay [6], 28.8 µM. Also, the TGI in assay [8] is 29.9 µM; in assay [9], over 100 µM.
For the compound `COc1cccc(C2SC(N)=Nc3c2c(C)nn3C(=O)c2ccccc2O)c1` (stereo not drawn), the TGI in assay [1], in assay [2], in assay [3], in [4], in assay [5] and in assay [6] was over 10 µM in each case. Further, the TGI in assay [8], in assay [10] and in [9] was over 10 µM throughout.
